Experimental data reported in patent US20210238197A1, “NOVEL OXOQUINOLIZINE COMPOUNDS FOR THE TREATMENT AND PROPHYLAXIS OF BACTERIAL INFECTION” (Hoffmann-La Roche Inc., priority 2018, published 2021).
Converted amounts (≈) assume the structure as drawn. Where two headings read alike, the source gives them in different places.

Experiments:
[1] = system: multiple species and strains; test: microbe, parasite or virus in culture; set-up: MIC S9 / MIC S7 / MIC S11 / MIC S8 / MIC S10: unit not given beside the values; settings: for MIC S9: E. coli ATCC 35218
Procedure: The MIC of antibacterial compounds against multiple species and strains was determined using the broth microdilution method according to M07-A10 Clinical and Laboratory Standards Institute (CLSI) guidelines (CLSI (2015) Methods for dilution antimicrobial susceptibility tests for bacteria that grow aerobically; Approved Standard, Tenth Edition. CLSI Document M7-A10 (ISBN 1-56238-987-4). Wayne, Pa.: Clinical and Laboratory Standards Institute, 19087, USA.). In short, bacterial strain preparation was performed on D1 and D2. […] 5-10 well-isolated colonies of similar morphology were selected and re-streaked onto fresh agar plates using sterile loops and incubated for 20-24 hr at 35±2° C. Bacterial strains were subcultured two times to ensure fresh inoculums for MIC screening. […] Alternatively, 1-2 colonies were transferred into 500 μL of saline and OD600 was adjusted to ˜0.1 using an OD meter. Bacterial inoculum was diluted by 1:280 for Gram-positive strains and 1:400 for Gram-negative strains into corresponding medium broth (CAMHB, CAMHB+3% lysed horse blood, HTM) (e.g. 35.6 μL of inoculum into 10 mL of CAMHB or 25 μL of inoculum into 10 mL of CAMHB). For compound plate, the compound stock solutions were prepared in 100% DMSO on the day of MIC screening and used immediately. Compound stock concentration=[(highest testing concentration)×100 μL/2 μL] (e.g. if the required highest testing concentration is 64 μg/mL in assay plates, stock concentration=64 μg/mL×100 μL/2 μL=3.2 mg/mL). […] 1 μL of each well was transferred in a new MTP, which served as the test plate by subsequent inoculation. The bacterial suspension prepared above is dispensed at 98 μL/well within 15 minutes after preparation. Negative controls (lack of bacterial cells) and growth control wells (lack of compound) were included in all plates. MTPs were incubated for 18-24 hours at 35±2° C. in ambient air. The MIC was recorded and CFUs were calculated on Day 4. The assay plate was placed on the top of MIC reader, and the magnification mirror was adjusted to read each wells, recording growth status as raw data. Photo images of each assay plates were recorded using Q Count 530 (Spiral Biotech). The MIC value of each compound, expressed as μg/mL, was determined as the lowest concentration required for complete growth inhibition (no visible growth).

A. baumannii (ATCC17978) = test: 50% growth inhibitory concentration (IC50) determination assay, A. baumannii; assay type: cell-based; settings: Iso-Sensitest broth, growth by OD 600 nm over 16 h, <0.098 = detection limit
Procedure: (§1) The in vitro antimicrobial activity of the compounds against S. aureus (ATCC29213), K. pneumoniae (ATCC10031), and A. baumannii (ATCC17978), was determined according to the following procedure: The assay used a 10-points Iso-Sensitest broth medium to measure quantitatively the in vitro activity of the compounds against S. aureus ATCC29213, K. pneumoniae ATCC 10031, and A. baumannii ATCC17978. Stock compounds in DMSO were serially two-fold diluted (range from 50 to 0.097 μM final concentration) in 384 wells microtiter plates and inoculated with 49 μL the bacterial suspension in Iso-Sensitest broth medium to have a final cell concentration of ˜5×10^5 CFU/mL in a final volume/well of 50 μL/well. Microtiter plates were incubated at 35±2° C. Bacterial cell growth was determined with the measurement of optical density at λ=600 nm each 20 minutes over a time course of 16 h.

S. aureus (ATCC29213) = test: 50% growth inhibitory concentration (IC50) determination assay, S. aureus; assay type: cell-based; settings: Iso-Sensitest broth, growth by OD 600 nm over 16 h, <0.098 = detection limit
Procedure: as §1

[2] = system: K. pneumoniae (ATCC10031); test: 50% growth inhibitory concentration (IC50) determination assay, K. pneumoniae; assay type: cell-based; settings: Iso-Sensitest broth, growth by OD 600 nm over 16 h, <0.098 = detection limit
Procedure: as §1

[3] = Cytotoxicity assay (HepG2, CellTiter-Blue); assay type: cell-based; settings: human; HepG2 cells, 3 days treatment; >100 = detection limit
Procedure: The cytotoxicity of compounds of present invention was assessed by HepG2 assay. HepG2 cells (ATCC RB-8065™) were seeded into 96-well plates (1.2×10^4 cells per well) and treated with compounds for 3 days, cell viability was measured at day 3 post compound treatment using the CellTiter-Blue® Cell Viability Assay (Promega, Cat. No. G8082). […], of Cell titer blue buffer were added to each well of the cells, which were incubated for 3 hours at 37° C., and the fluorescence value was measured by a plate reader (Molecular Device SpectraMax M2). The CC50 value of each compound is plotted with GraphPad Prism using four parameter logistic equation.

[4] = Acinetobacter baumannii, ATCC19606, read-out: MIC S1, A. baumannii ATCC 19606
[5] = Acinetobacter baumannii, ATCC51432, read-out: MIC S2, A. baumannii ATCC 51432
[6] = Acinetobacter baumannii, ATCCBAA747, read-out: MIC S3, A. baumannii ATCC BAA-747
[7] = Escherichia coli, ATCC25922, read-out: MIC S11, E. coli ATCC 25922
[8] = Escherichia coli, ATCCBAA2340, read-out: MIC S10, E. coli ATCC BAA-2340
[9] = Klebsiella pneumoniae, ATCC10031, read-out: MIC S4, K. pneumoniae ATCC 10031
[10] = Klebsiella pneumoniae, ATCC700603, read-out: MIC S5, K. pneumoniae ATCC 700603
[11] = Klebsiella pneumoniae, ATCCBAA2146, read-out: MIC S6, K. pneumoniae ATCC BAA-2146
[12] = Pseudomonas aeruginosa, ATCC27853, read-out: MIC S7, P. aeruginosa ATCC 27853
[13] = Pseudomonas aeruginosa, ATCCBAA2113, read-out: MIC S8, P. aeruginosa ATCC BAA-2113
[14] = Acinetobacter baumannii, ATCC17978
[15] = Staphylococcus aureus, ATCC29213
[16] = Klebsiella pneumoniae, ATCC10031

SMILES | MIC S9 [1] | MIC [1, 4] | MIC [1, 5] | MIC [1, 6] | MIC [1, 7] | MIC [1, 8] | MIC [1, 9] | MIC [1, 10] | MIC [1, 11] | MIC [1, 12] | MIC [1, 13] | IC50 (A. baumannii (ATCC17978); [14]) | IC50 (S. aureus (ATCC29213); [15]) | IC50 [2, 16] | also measured
CNc1cc(F)c(C#N)c2c1[nH]c1ncc(-c3ccc4ccc(C(=O)O)c(=O)n4c3)c(N3C[C@H]4CCN(C)[C@H]4C3)c12 (single isomer, unassigned) [Example 1.16, 7-[4-[cis-1-methyl-2,3,3a,4,6,6a-hexahydropyrrolo[3,4-b]pyrrol-5-yl]-5-cyano-6-fluoro-8-(methylamino)-9H-pyrido[2,3-b]indol-3-yl]-4-oxo-quinolizine-3-carboxylic acid] | 0.216 | – | – | – | – | – | – | – | – | – | – | – | – | – | MIC S1 ([1]; A. baumannii ATCC 19606): 0.431; MIC S2 ([1]; A. baumannii ATCC 51432): 0.216; MIC S3 ([1]; A. baumannii ATCC BAA-747): 0.216; MIC S11 ([1]; E. coli ATCC 25922): 0.040; MIC S10 ([1]; E. coli ATCC BAA-2340): 0.216; MIC S4 ([1]; K. pneumoniae ATCC 10031): 0.027; MIC S5 ([1]; K. pneumoniae ATCC 700603): 1.724; MIC S6 ([1]; K. pneumoniae ATCC BAA-2146): 1.724; MIC S7 ([1]; P. aeruginosa ATCC 27853): 0.431; MIC S8 ([1]; P. aeruginosa ATCC BAA-2113): 3.447; IC50 (A. baumannii (ATCC17978)): < 0.098 µM; IC50 (S. aureus (ATCC29213)): < 0.098 µM; IC50 [2]: < 0.098 µM
CNc1cc(F)c(F)c2c1[nH]c1ncc(-c3ccc4ccc(C(=O)O)c(=O)n4c3)c(N3CC[C@@]4(C[C@@H]4N)C3)c12 (single isomer, unassigned) [Example 4.01A] | 0.297 | 0.445 mg/L (≈ 0.839 µM) | 0.445 mg/L (≈ 0.839 µM) | 0.592 mg/L (≈ 1.12 µM) | 0.111 mg/L (≈ 0.209 µM) | 0.297 mg/L (≈ 0.56 µM) | 0.074 mg/L (≈ 0.139 µM) | 2.37 mg/L (≈ 4.47 µM) | 2.37 mg/L (≈ 4.47 µM) | 0.592 mg/L (≈ 1.12 µM) | 1.19 mg/L (≈ 2.24 µM) | < 0.098 µM | < 0.098 µM | < 0.098 µM | –
CNc1cc(F)c(F)c2c1[nH]c1ncc(-c3ccc4ccc(C(=O)O)c(=O)n4c3)c(N(C)C)c12 [Example 1.01, 7-(4-(Dimethylamino)-5,6-difluoro-8-(methylamino)-9H-pyrido[2,3-b]indol-3-yl)-4-oxo-411-quinolizine-3-carboxylic acid] | 0.113 | 0.057 mg/L (≈ 0.123 µM) | 0.45 mg/L (≈ 0.971 µM) | 0.225 mg/L (≈ 0.485 µM) | 0.169 mg/L (≈ 0.365 µM) | 0.225 mg/L (≈ 0.485 µM) | 0.057 mg/L (≈ 0.123 µM) | 0.45 mg/L (≈ 0.971 µM) | 1.8 mg/L (≈ 3.89 µM) | 0.901 mg/L (≈ 1.94 µM) | 0.901 mg/L (≈ 1.94 µM) | < 0.098 µM | < 0.098 µM | < 0.098 µM | –
CNc1cc(F)c(F)c2c1[nH]c1ncc(-c3ccc4ccc(C(=O)O)c(=O)n4c3)c(N3CC4[C@H](CC[C@H]4N(C)C)C3)c12 (stereo partly drawn) [Example 1.05, 7-[4-[cis-(4R)-4-(dimethylamino)-3,3a,4,5,6,6a-hexahydro-1H-cyclopenta[c]pyrrol-2-yl]-5,6-difluoro-8-(methylamino)-9H-pyrido[2,3-b]indol-3-yl]-4-oxo-quinolizine-3-carboxylic acid] | – | – | – | – | – | – | – | – | – | – | – | – | – | – | CC50 at 3 days [3]: 15.5 µM
CNc1cc(F)c(Cl)c2c1[nH]c1ncc(-c3ccc4ccc(C(=O)O)c(=O)n4c3)c(N3CC[C@H]4CN(C)C[C@H]43)c12 [Example 1.07, 7-(5-chloro-6-fluoro-8-(methylamino)-4-((3aS,6aS)-5-methyl-2,3,3a,4,6,6a-hexahydropyrrolo[2,3-c]pyrrol-1-yl)-9H-pyrido[2,3-b]indol-3-yl)-4-oxo-4H-quinolizine-3-carboxylic acid] | 0.132 | 0.066 mg/L (≈ 0.118 µM) | 0.066 mg/L (≈ 0.118 µM) | 0.263 mg/L (≈ 0.469 µM) | 0.049 mg/L (≈ 0.0873 µM) | 0.132 mg/L (≈ 0.235 µM) | 0.033 mg/L (≈ 0.0588 µM) | 1.05 mg/L (≈ 1.88 µM) | 0.527 mg/L (≈ 0.939 µM) | 0.527 mg/L (≈ 0.939 µM) | 8.44 mg/L (≈ 15 µM) | < 0.098 µM | < 0.098 µM | < 0.098 µM | –
CNc1cc(F)c(Cl)c2c1[nH]c1ncc(-c3ccc4ccc(C(=O)O)c(=O)n4c3)c(N3C[C@H]4CC[C@@H](N(C)C)[C@H]4C3)c12 [Example 1.08, 7-[4-[cis-(4R)-4-(dimethylamino)-3,3a,4,5,6,6a-hexahydro-1H-cyclopenta[c]pyrrol-2-yl]-5-chloro-6-fluoro-8-(methylamino)-9H-pyrido[2,3-b]indol-3-yl]-4-oxo-quinolizine-3-carboxylic acid] | 0.548 | 0.274 mg/L (≈ 0.465 µM) | 0.274 mg/L (≈ 0.465 µM) | 0.548 mg/L (≈ 0.93 µM) | 0.206 mg/L (≈ 0.35 µM) | 0.548 mg/L (≈ 0.93 µM) | 0.069 mg/L (≈ 0.117 µM) | 4.39 mg/L (≈ 7.46 µM) | 2.2 mg/L (≈ 3.73 µM) | 2.2 mg/L (≈ 3.73 µM) | 4.39 mg/L (≈ 7.46 µM) | < 0.098 µM | < 0.098 µM | < 0.098 µM | –
CNc1cc(F)c(F)c2c1[nH]c1ncc(-c3ccc4ccc(C(=O)O)c(=O)n4c3)c(N3C[C@H]4CCN(C)[C@H]4C3)c12 [Example 3.03A, 7-[4-[(3aR,6aR)-1-methyl-2,3,3a,4,6,6a-hexahydropyrrolo[3,4-b]pyrrol-5-yl]-5,6-difluoro-8-(methylamino)-9H-pyrido[2,3-b]indol-3-yl]-4-oxo-quinolizine-3-carboxylic acid] | 0.425 | 0.106 mg/L (≈ 0.195 µM) | 0.212 mg/L (≈ 0.389 µM) | 0.212 mg/L (≈ 0.389 µM) | 0.08 mg/L (≈ 0.147 µM) | 0.425 mg/L (≈ 0.78 µM) | 0.027 mg/L (≈ 0.0496 µM) | 3.4 mg/L (≈ 6.25 µM) | 1.7 mg/L (≈ 3.13 µM) | 0.85 mg/L (≈ 1.56 µM) | 3.4 mg/L (≈ 6.25 µM) | < 0.098 µM | < 0.098 µM | < 0.098 µM | –
CNc1cc(F)c(F)c2c1[nH]c1ncc(-c3ccc4ccc(C(=O)O)c(=O)n4c3)c(N3CC[C@H]4CCN(C)[C@H]4C3)c12 [Example 3.04A, 7-[4-[(3aR,7aR)-1-methyl-3,3a,4,5,7,7a-hexahydro-2H-pyrrolo[2,3-c]pyridin-6-yl]-5,6-difluoro-8-(methylamino)-9H-pyrido[2,3-b]indol-3-yl]-4-oxo-quinolizine-3-carboxylic acid] | 0.218 | 0.218 mg/L (≈ 0.39 µM) | 0.218 mg/L (≈ 0.39 µM) | 0.218 mg/L (≈ 0.39 µM) | 0.082 mg/L (≈ 0.147 µM) | 0.218 mg/L (≈ 0.39 µM) | 0.027 mg/L (≈ 0.0483 µM) | 1.75 mg/L (≈ 3.13 µM) | 1.75 mg/L (≈ 3.13 µM) | 0.436 mg/L (≈ 0.781 µM) | 3.49 mg/L (≈ 6.25 µM) | < 0.098 µM | < 0.098 µM | < 0.098 µM | –
